The values below come from patent US11096986B2, “Use of a neurofilament peptide for targeting neural stem cells” (Universite D'Angers, priority 2014, dated 2021).

Ends that are not written are not given here. Bounds are passed on as bounds.

Data set [1] deals with neural stem cells. The data set can be described thus: Cell cycle analysis by PI incorporation and FACS. It is filed as cell-based, rat. On the procedure: […] Neurospheres were then collected in a microcentrifuge tube. After centrifugation (5 min at 700 rpm), cells were dissociated mechanically and permeabilized with PBS-Tween 0.5% and fixed with ethanol 70% before adding 1 mg/mL RNase (Invitrogen) during 30 min at 37° C. The cell suspension was diluted in 10 μg/mL PI before DNA content analysis by flow cytometry.

In data set [2] the test system is neural stem cells. Nature of the data set: Cell viability by Annexin V/PI staining and FACS. It counts as cell-based, rat. On the procedure: To analyse the cell viability in the presence of the NFL-TBS40-63 peptide, neurospheres were seeded in 35-mm dishes and then treated with increased concentrations of biotinylated peptide or with 1 μmol/L colchicine during 3 or 5 days at 37° C. Neurospheres were then collected in a microcentrifuge tube. After centrifugation (5 min at 700 rpm), cells were dissociated mechanically and stained with annexin-V FITC (Annexin-V FITC Kit, Miltenyi Biotec) for 15 min at room temperature. Finally, cells were counterstained with 1 μg/mL PI solution prior to analysis by flow cytometry.

In data set [3] the test system is neural stem cells. Nature of the data set: CyQUANT cell proliferation assay. It is filed as cell-based, rat. As for the experimental part: To analyse the NFL-TBS.40-63 peptide effect on the NSC proliferation, primary neurospheres were dissociated and 5.10^3 cells per well were plated on BD Cell-Tak (BD Biosciences) on 96 well microplate. Cells were treated with increased concentrations of biotinylated NFL-TBS.40-63 peptide, or with 1 μmol/L colchicine during 72 h at 37° C. After washes with PBS, cells were freezed at −80° C. Finally, the DNA concentration was analyzed using the CyQUANT cell proliferation assay kit (Molecular Probes).

Data set [4] deals with neural stem cells. The data set can be described thus: Confocal microscopy of neurospheres (peptide uptake, α-tubulin microtubule network). It counts as cell-based, rat. As for the experimental part: To visualize the NFL-TBS40-63 peptide uptake in neural stem cells, neurospheres were plated on BD Cell-Tak (BD Biosciences) coverslips or LabTek chambers. After 24 h, neurospheres were incubated with 20 μmol/L FITC labelled NFL-TBS40-63 peptide for 30 min, 6 h or 72 h. Following PBS washing, cells were fixed with 4% paraformaldehyde for 15 min and washed three times in PBS. They were then incubated in a 0.5% triton X-100 permeabilization solution for 30 min and washed three times in PBS before incubation in a blocking solution (1% bovine serum albumin in 0.1% triton X-100) for 1 h. Neurospheres were then incubated overnight at 4° C. with mouse anti-α-tubulin antibody (Sigma) 1/1000. After three washes in PBS, tubulin was localized using an Alexa 568 nm anti-mouse antibody (Life Technologies) 1/200 for 2 h. Neurospheres were washed three times with PBS before adding 3 μmol/L 4′6-diaminido-2-phenylindole (DAPI, Sigma) for 5 min. Following PBS washing, coversplips were mounted with a ProLong Gold antifade solution (Life Technologies).

Data set [5] relates to neural stem cells of newborn rats. Nature of the data set: FACS internalization of FITC labelled peptide in neurospheres of newborn rats. It is filed as cell-based, rat. As to conditions: for percentage of newborn NSCs that internalized the peptide: 30 min, FACS. On the procedure:
(§1) Primary cultures of neural stem cells are derived from the sub-ventricular zone of newborn (1-5 days) or adults (<4 months) brain Wistar rats. The dissociated cells were grown in MEM alpha (PAA) supplemented with 25 mmol/L D-glucose (Sigma), 1 mmol/L Na Pyruvate, 15 mmol/L HEPES, 5% penicillin/streptomycin (PAA) and 1% B27 (Gibco), and containing 20 ng/mL EGF (Promega). After 5-7 days, stem cells formed floating neurospheres.
(§2) To evaluate the internalization of the FITC labelled NFL-TBS40-63 peptide by the fluorescence-activated cell sorting technique (FACS, Becton Dickinson), neurospheres were seeded in 35-mm dishes and cultured for 30 min at 37° C. in media containing FITC labelled NFL-TBS40-63 peptide at increasing concentrations. To quench the extracellular signal of the FITC labelled NFL-TBS40-63 peptide, 0.4% trypan blue (Sigma) was added before FACS analysis. To investigate the uptake mechanism, neurospheres were preincubated at 4° C. during 30 min, or with 10 mmol/L sodium azide in the presence of 6 mmol/L 2-deoxy-D-glucose to deplete cellular ATP, or with different inhibitors during 30 min at 37° C. Then 20 μmol/L FITC labelled peptide was added to the cells for 30 min at 37 C.°. Subsequently, after centrifugation (5 min at 700 rpm), cells were dissociated mechanically and washed twice with PBS, and then re-suspended in 50 μg/mL Propidium iodide (PI, Sigma). The fluorescent positive cells that incorporated the FITC labelled peptide were analyzed by flow cytometry (FACSCalibur, Becton Dickinson).

In data set [6] the test system is adult neural stem cells in the SVZ. Nature of the data set: Intra-ventricular injection of the peptide and immunohistochemistry of the SVZ. It counts as in vivo, rat. On the procedure: Adult females Wistar rats were anesthetized by intraperitoneal injection of a mixture of ketamine 10% (80 mg/kg) and xylazine 2% (10 mg/kg). Animals were then placed on a stereotaxic apparatus (David Kopf instruments, Tujunga, Calif.), and a sagital incision was made through the skin to expose the cranium in which a small hole was made using a dental drill, at the appropriate coordinates (−0.8 mm anterior and 1.6 mm lateral to the bregma). A volume of […] of the FITC-peptide 1 mmol/L was injected, using a 10-μL Hamilton syringe (Hamilton glass syringe 70 RN) with a 32-G needle (Hamilton, VWR), at a depth of 4.3 mm from the outer border of the cranium into the right lateral ventricle, and connected through a cannula to a 100-μL Hamilton 22-G syringe (Hamilton glass syringe 810 RN) containing the peptide. A slow-infusion was performed by convection-enhanced delivery (CED) with an osmotic pump (Harvard Apparatus) at a flow rate of 0.5 μL/min. After injection and withdrawal of the needle (0.5 mm/min), the head skin was sutured. Animals were sacrificed 1 hour, 6 hours, or 24 hours after the injection, and brains were removed and frozen, before sectioning them using a Leica cryostat. […]

In data set [7] the test system is neural stem cells of adult rats. The data set can be described thus: FACS internalization of FITC labelled peptide in neurospheres of adult rats. It is filed as cell-based, rat. As to conditions: 40 μmol/L, 30 minutes. On the procedure: as §1
as §2, with “Subsequently, after centrifugation (5 min at 700 rpm), cells were dissociated mechanically and washed twice with PBS, and then re-suspended in 50 μg/mL Propidium iodide (PI, Sigma).” left out

For data set [8], the system named is PSA-NCAM expression on neural stem cells. Nature of the data set: PSA-NCAM expression by flow cytometry. As to conditions: high peptide concentrations, 7 days. It counts as cell-based, rat. On the procedure:
To quantify the PSA-NCAM expression on neural stem cells, neurospheres were seeded in 35-mm dishes and cultured for 7 days at 37° C. in media containing biotinylated NFL-TBS.40-63 peptide at increasing concentrations, or containing 1% new-born calf serum (NBCS). After dissociation, cells were incubated with the anti-PSA-NCAM antibody conjugated to R-phycoerythrin (PE) for 10 minutes at 4° C. (Miltenyi), washed and then re-suspended in 50 μg/mL PI. The fluorescent positive cells that expressed PSA-NCAM were analyzed by flow cytometry.
In general terms: In flow cytometry, cells or beads pass a laser one at a time.

The subject of data set [9] is neural stem cells. Nature of the data set: Self-renewal assay (secondary neurospheres). It is filed as cell-based, rat. As to conditions: primary neurospheres cultured with peptide, dissociated, 5 days in culture medium only. As for the experimental part: (§3) To investigate neurosphere forming properties, 5.10^3 SVZ cells were seeded per well in a 24 wells plate in media containing 20 ng/mL EGF. Cells were incubated in the absence or presence of increasing concentrations of biotinylated peptide, or with 1 μg/mL colchicine. After 5-7 days, the total number of primary neurospheres and the percent of adherent primary neurospheres were determined in each condition by microscopy analysis, and pictures were taken with an inverted microscope and the Metamorph software. Then for self-renewal assay, primary neurospheres were collected in each condition, dissociated as single cells, and seeded in media containing 20 ng/mL EGF. After 5 days, the total number of secondary neurospheres was counted in each condition by microscopy analysis.

For the next data set, the system named is neurones and astrocytes. Conditions: neurones and astrocytes (Bocquet et al., 2009; Bergès et al., 2012); cited from earlier work.
Data set [10] relates to neural stem cells. The data set can be described thus: Neurosphere forming analysis (primary neurospheres, adherence). It is filed as cell-based, rat. On the procedure: as §3
In a further data set the test system is glioblastoma cells. Conditions: glioblastoma cells (Bocquet et al., 2009; Bergès et al., 2012); cited from earlier work.
Data set [11] concerns neural stem cells of newborn rats. Nature of the data set: Uptake mechanism by FACS (4° C., ATP depletion, endocytosis inhibitors). It is filed as cell-based, rat. As for the experimental part: as §2
Where [12] appears, read: summary of proliferation and adhesion results.

As for `COc1cc2c(c(OC)c1OC)-c1ccc(OC)c(=O)cc1[C@@H](NC(C)=O)CC2` [colchicine, reference compound], the “cellular cycle of NSC” value in the data set with neural stem cells [1] (1 μg/mL colchicine, positive control) was “affected”. In addition, the “number of viable NSC” value in the data set with neural stem cells [2] (colchicine, three days, Annexin V-FITC and PI) was “strongly reduced”. For the same compound, the “neural stem cell proliferation (DNA concentration)” value in the data set on neural stem cells [3] (colchicine, anti-proliferative agent control) was “significant decrease”. Moreover, the “microtubule network of NSC” value in the data set on neural stem cells [4] (colchicine) is given as “profoundly affected”.

Take “FITC-peptide: NFL-TBS40-63 peptide coupled to carboxy-fluorescein isothiocyanate (FITC) (YSSYSAPVSSSLSVRRSYSSSSGS; also: coupled to FITC, site not given here; UniProt P07196 40-63, looked up, fragment)”: the “percentage of newborn NSCs that internalized the peptide” value is given as 38.72±9.08% in [5] (5 μmol/L FITC-peptide) and 91.07±5.13% in data set [5] (40 μmol/L FITC-peptide). Also, in [5] (0.4% trypan blue added before FACS reading), the “peptide uptake after quenching of surface-bound fluorescence” value was “dose-dependent uptake of the peptide similar to that without quenching”. In data set [6] (1 mmol/L FITC peptide in right lateral ventricle of adult rats, 1 hour after injection), the “localisation of the peptide in brain sections” value is “localised in the right lateral ventricle, in the ependymal cells and a part was observed in the SVZ”. Further, in [6] (after injection in right lateral ventricle, confocal analyses), the cytotoxicity in vivo result is on record as “without causing detectable cytotoxicity”. Moreover, the “maximum threshold of peptide uptake in adult NSC (percentage of fluorescent cells)” value in data set [7] is given as 92.74±2.51%. Further, the “internalization of the peptide by confocal microscopy” value with neural stem cells [4] (NSCs in the neurospheres and progenitor cells in the periphery, 20 μmol/L FITC labelled peptide) is “confirmed the internalization”.

Regarding “YSSYSAPVSSSLSVRRSYSSSSGS (TBS motif of the human light chain neurofilament protein, amino acids) [NFL-TBS40-63 peptide]”, the “cellular cycle of NSC” value in the data set on neural stem cells [1] (increased peptide concentrations, 48 h) is “remained unchanged”. Further, in the data set with neural stem cells [1] (with or without peptide, 48 h), the “cells in G1-phase” value is on record as 60-65%, the “cells in G2/M-phases” value is roughly 7% and the “cells in S-phase” value is given as roughly 10%. The “PSA-NCAM expression on the neural stem cells” value in [8] was “weak decrease”. In addition, in the data set on neural stem cells [9], the “numbers of secondary neurospheres compared to control (self-renewal)” value was “significantly lower numbers of secondary neurospheres”. The NSC cell viability result in the data set with neural stem cells [2] is recorded as “not modified”. Besides, in the data set on neural stem cells [3] (increased peptide concentrations, one week (72 h in method)), the “neural stem cell proliferation (DNA concentration)” value is on record as “significant decrease”. Further, the “microtubule and cellular cycle disruption in normal cells” value with neurones and astrocytes is “not observed”. The “adherence of primary neurospheres” value with neural stem cells [10] (40 μmol/L peptide) is given as “most of primary neurospheres were adherent”. Moreover, the “number of primary neurospheres compared to untreated control” value in the data set on neural stem cells [10] (increased peptide concentrations, 5 days, except for 100 μmol/L) is given as “did not change”. Also, in the data set with neural stem cells [10] (peptide concentrations higher than 40 μmol/L), the “adherence of primary neurospheres” value is reported as “no floating neurospheres were observed”. In addition, in the data set with neural stem cells [10] (setting [12]), the “high concentrations that affect both proliferation and adhesion of neural stem cells” value was no less than 40 µmol/L; the “low concentrations that disrupt cell proliferation without effect on cell attachment” value is listed as “up to 20 μmol/L”. The “concentration at which the peptide disrupts microtubule formation and the cellular cycle” value in the data set with glioblastoma cells is “higher than 10 μm”. Further, the “peptide uptake under ATP-depletion” value in [11] (ATP-depleted buffer 30 minutes before peptide, 20 μmol/L FITC labelled peptide) was “not affected”. For the same compound, in data set [11] (cells at 4° C. 30 minutes before peptide, 20 μmol/L FITC labelled peptide), the “peptide uptake at 4° C.” value is recorded as “not affected”. Also, the “peptide uptake in the presence of inhibitors of endocytic and signalling pathways” value in [11] (chlorpromazine, PMA, DAM, wortmaninn, U0126, genistein, sunitinib, gefitinib pre-treatment 30 min, 20 μmol/L peptide) was “not affected”. Further, in the data set on neural stem cells [4] (6 hours of incubation with the peptide (20 μmol/L FITC labelled)), the “microtubule network of NSC” value is “not affected”.
